The text below walks through data of article PMC9181938, “Fluorinated Analogues of Lepidilines A and C: Synthesis and Screening of Their Anticancer and Antiviral Activity” (Molecules, 2022).

Read-outs that look alike come from different tables or passages of the source. Where only a bound is given, the exact number is not on record here.

Data set [1] deals with Encephalomyocarditis virus (EMCV). Kind of data set: Antiviral screening at 10 µM. To be noted: EMCV-infected cells. Type of data set: cell-based. A digest of the protocol:
(§1)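 Infected Vero, LLC-MK2, NCTC 929 or HeLa cell monolayers (MOI 0.005; HPIV-3 MOI 0.01) were treated after 1-h adsorption with compounds at 10 µM (0.1% DMSO). Cultures were incubated at 37 °C until cytopathic effect was visible. Viral infection was scored by MTT assay (OD 550/670 nm), in triplicate.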

The subject of data set [2] is Human herpesvirus 1 (HSV-1). The experiment in a line: Antiviral screening at 10 µM. Type of data set: cell-based. To be noted: antiviral screening, HSV-1-infected cells. In a few lines:
as §1

Data set [3] has as its system Human parainfluenza virus type 3 (HPIV-3). Kind of data set: Antiviral screening at 10 µM. Type of data set: cell-based. The settings on record: antiviral screening, HPIV-3-infected cells. A digest of the protocol: as §1
Data set [4] has as its system Human adenovirus 5 (AdV5). The experiment in a line: Antiviral screening at 10 µM. To be noted: AdV5-infected cells. Type of data set: cell-based. A digest of the protocol:
as §1

Data set [5] concerns Vero cells. The experiment in a line: Cytotoxicity screening at 10 µM (MTT). It is filed as cell-based, Cercopithecus aethiops. To be noted: 48 h.
Data set [6] relates to NCTC clone 929 cells. The experiment in a line: Cytotoxicity screening at 10 µM (MTT). It is filed as cell-based, Mus musculus. To be noted: 48 h.
Data set [7] relates to Human parainfluenza virus type 3 (HPIV-3). The experiment in a line: Antiviral activity assay (0.1–1000 µM), IC50. Type of data set: cell-based. A digest of the protocol: (§2)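 Confluent cell monolayers were infected (AdV5 and EMCV MOI 0.005, HPIV-3 MOI 0.01, 1-h adsorption; HCMV 20 PFU/well, 2-h adsorption), then incubated at 37 °C with compounds (0.1–1000 µM) in 2% FBS MEM until CPE appeared. Infection was read by MTT or, for HCMV, plaque counting. IC50 was the concentration halving plaques versus untreated infected controls.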

The test system of data set [8] is HeLa cells. The experiment in a line: Cytotoxicity screening at 10 µM (MTT). It is filed as cell-based, Human. To be noted: 48 h.
For data set [9], the system named is LLC-MK2 cells. Kind of data set: Cytotoxicity MTT assay (0.1–1000 µM), CC50. Type of data set: cell-based, Macaca mulatta.
Data set [10] relates to MRC-5 cells. Kind of data set: Cytotoxicity screening at 10 µM (MTT). The settings on record: 48 h. It is filed as cell-based, Human.
In data set [11] the test system is LLC-MK2 cells. The experiment in a line: Cytotoxicity screening at 10 µM (MTT). Type of data set: cell-based, Macaca mulatta. To be noted: 48 h.
The subject of data set [12] is NCTC clone 929 cells. The experiment in a line: Cytotoxicity MTT assay (0.1–1000 µM), CC50. It is filed as cell-based, Mus musculus. To be noted: NCTC clone 929, MTT, 48 h; read-out: CC50 Normal Cell Lines NCTC Clone 929.
For data set [13], the system named is MRC-5 cells. Kind of data set: Cytotoxicity MTT assay (0.1–1000 µM), CC50. Type of data set: cell-based, Human. To be noted: MRC-5, MTT, 48 h; read-out: CC50 Normal Cell Lines MRC-5.
In data set [14] the test system is HeLa cells. Kind of data set: Cytotoxicity MTT assay (0.1–1000 µM), CC50. Type of data set: cell-based, Human. The settings on record: MTT, 48 h, read-out: CC50 Cancer Cell Lines HeLa.
The subject of the next data set is HepG2 cells. Kind of data set: Cytotoxicity MTT assay (0.1–1000 µM), CC50. It is filed as cell-based, Human. To be noted: 48 h, read-out: CC50 Cancer Cell Lines HepG2.
Data set [15] concerns Vero cells. The experiment in a line: Cytotoxicity MTT assay (0.1–1000 µM), CC50. It is filed as cell-based, Cercopithecus aethiops. The settings on record: 48 h; for CC50: read-out: CC50 Normal Cell Lines Vero.
For another data set, the system named is A549 cells. Kind of data set: Cytotoxicity MTT assay (0.1–1000 µM), CC50. Type of data set: cell-based, Human. The settings on record: 48 h, read-out: CC50 Cancer Cell Lines A549.
Data set [16] is described as follows: Cytotoxicity MTT assay (0.1–1000 µM), CC50. The settings on record: Mus musculus, NCTC clone 929 cells, NCTC clone 929, MTT, 48 h; read-out: CC50 Normal Cell Lines NCTC Clone 929. Type of data set: cell-based, Mus musculus.
Data set [17] has as its system Encephalomyocarditis virus (EMCV). The experiment in a line: Antiviral activity assay (0.1–1000 µM), IC50. Type of data set: cell-based. To be noted: Cardiovirus A, MOI 0.005, read-out: IC50 EMCV. A digest of the protocol: as §2
Data set [18] concerns Human herpesvirus 1 (HSV-1). The experiment in a line: Antiviral activity assay (0.1–1000 µM), IC50. Type of data set: cell-based. The settings on record: Human alphaherpesvirus 1; HSV-1, MOI 0.005.
Data set [19] has as its system Human adenovirus 5 (AdV5). The experiment in a line: Antiviral activity assay (0.1–1000 µM), IC50. It is filed as cell-based. The settings on record: Human mastadenovirus C; AdV5, MOI 0.005; read-out: IC50 AdV5. A digest of the protocol: as §2
Data set [20] can be described thus: Cytotoxicity MTT assay (0.1–1000 µM), CC50. Type of data set: cell-based, Human. To be noted: human, HepG2 cells, read-out: CC50 Cancer Cell Lines HepG2.
Data set [21] deals with Human herpesvirus 5 (HCMV). The experiment in a line: Antiviral activity assay (0.1–1000 µM), IC50, plaque reduction. It is filed as cell-based. The settings on record: Human betaherpesvirus 5, 20 PFU/well. In a few lines:
as §2

Data set [22] in a line: Cytotoxicity MTT assay (0.1–1000 µM), CC50. Type of data set: cell-based, Human. The settings on record: human, A549 cells, read-out: CC50 Cancer Cell Lines A549.
Data set [23] can be described thus: Cytotoxicity MTT assay (0.1–1000 µM), CC50. It is filed as cell-based, Human. The settings on record: human, MRC-5 cells, MRC-5, MTT, read-out: CC50 Normal Cell Lines MRC-5.
Data set [24] in a line: Cytotoxicity MTT assay (0.1–1000 µM), CC50. Type of data set: cell-based, Human. To be noted: human, HeLa cells, MTT, 48 h, read-out: CC50 Cancer Cell Lines HeLa.
The nature of data set [25]: Cytotoxicity MTT assay (0.1–1000 µM), CC50. The settings on record: Cercopithecus aethiops, Vero cells, read-out: CC50 Normal Cell Lines Vero. It is filed as cell-based, Cercopithecus aethiops.
Data set [26] can be described thus: Cytotoxicity MTT assay (0.1–1000 µM), CC50. Type of data set: cell-based, Macaca mulatta. The settings on record: Macaca mulatta, LLC-MK2 cells, LLC-MK2, MTT, 48 h; read-out: CC50 Normal Cell Lines LLC-MK2.
Setting [27] is: Table S4, range 0.1-1000 µM, HPIV-3, read-out: IC50 (M) HPIV-3.
Setting [28] is: LLC-MK2, MTT, 48 h, read-out: CC50 Normal Cell Lines LLC-MK2.
[29] abbreviates: Table S2, range 0.1-1000 µM, LLC-MK2, read-out: Cell line (CC50 M) LLC-MK2.
[30] abbreviates: Human respirovirus 3, HPIV-3, MOI 0.01, read-out: IC50 HPIV-3.

Turning to `Cc1c(C)[n+](Cc2ccccc2)cn1Cc1ccccc1` [1a[PF6]], the “Cell line (viability %) EMCV” value in [1] amounted to 7.8%. The “Cell line (viability %) HSV-1” value in data set [2] is reported as 17.5%. The “Cell line (viability %) HPIV-3” value in data set [3] is 62.4%. For the same molecule, the “Cell line (viability %) AdV5” value in data set [4] was determined as 15.3%. In addition, the “Cell line (viability %) Vero” value in the data set on Vero cells [5] is recorded as 89.0%. The “Cell line (viability %) NCTC clone 929” value in the data set with NCTC clone 929 cells [6] was found to be 56.2%. In addition, in data set [7] (setting [27]), the IC50 was over 3.27e-05 M. For the same molecule, the “Cell line (viability %) HeLa” value with HeLa cells [8] worked out at 23.4%. For the same molecule, the CC50 with LLC-MK2 cells [9] (setting [28]) was under 80 µM; in the data set on LLC-MK2 cells [9] (setting [29]), 32.7 ± 6.81 µM. In addition, the “Cell line (viability %) MRC-5” value with MRC-5 cells [10] is 78.6%. Moreover, the “Cell line (viability %) LLC-MK2” value with LLC-MK2 cells [11] is 90.3%.
With `COc1cccc(Cn2c[n+](Cc3ccccc3)c(C)c2C)c1` [1c[PF6]], the “Cell line (viability %) EMCV” value in data set [1] amounted to 7.9%. Moreover, the “Cell line (viability %) HSV-1” value in [2] was found to be 23.3%. Moreover, the “Cell line (viability %) HPIV-3” value in data set [3] is recorded as 91.1%. Moreover, the “Cell line (viability %) AdV5” value in data set [4] amounted to 17.1%. In addition, the “Cell line (viability %) Vero” value with Vero cells [5] came to 91.3%. In the data set with NCTC clone 929 cells [6], the “Cell line (viability %) NCTC clone 929” value is reported as 8.5%. Moreover, in [7] (setting [27]), the IC50 was over 7.53e-05 M. The “Cell line (viability %) HeLa” value with HeLa cells [8] stood at 11.4%. The CC50 was under 80 µM in the data set on LLC-MK2 cells [9] (setting [28]) and 75.3 ± 5.51 µM in the data set with LLC-MK2 cells [9] (setting [29]). The “Cell line (viability %) MRC-5” value in the data set on MRC-5 cells [10] was 76.9%. The “Cell line (viability %) LLC-MK2” value with LLC-MK2 cells [11] is 55.6%.
For the molecule `Cc1c(C)[n+](Cc2cccc(F)c2)cn1Cc1ccccc1` [1e[PF6]] [1-Benzyl-3-(3-fluorobenzyl)-4,5-dimethylimidazolium hexafluorophosphate], the CC50 stood at 148 ± 11.5 µM in the data set with NCTC clone 929 cells [12]; 150 ± 4.17 µM in the data set on MRC-5 cells [13]; 0.08 ± 0.001 µM with HeLa cells [14]; 317 ± 5.77 µM in the data set with HepG2 cells; 56.3 ± 3.21 µM in the data set on Vero cells [15]; 38 ± 3.46 µM in the data set with A549 cells. Also, the CC50 in the data set with LLC-MK2 cells [9] (setting [28]) came out at 150 ± 2.52 µM.
For `Cc1c(C)[n+](Cc2cccc(F)c2)cn1Cc1ccccc1.[Cl-]` [Compound 1e, 1-Benzyl-3-(3-fluorobenzyl)-4,5-dimethylimidazolium chloride], the melting point lay in the range of 190 to 192 °C. For the same molecule, the CC50 at 48 h in data set [16] is 79.2 ± 1.44 µM. For the same molecule, the CC50 with MRC-5 cells [13] came to 52.7 ± 0.577 µM. The IC50 in data set [17] is over 79.2 µM. The concentration for half-maximal inhibition (IC50) in data set [18] is over 22.7 µM. Besides, in [7] (setting [30]), the IC50 is over 5.35e-05 M. Also, in [19], the IC50 is over 0.039 µM. Further, in the data set on HeLa cells [14], the CC50 is 0.039 ± 0.001 µM. Besides, in data set [20], the CC50 at 48 h was found to be 423 ± 7.64 µM. Moreover, the CC50 in the data set on Vero cells [15] is 22.7 ± 1.53 µM. Further, in data set [21], the IC50 is over 52.7 µM. The CC50 at 48 h in data set [22] was 37.7 ± 3.79 µM. Further, the CC50 in the data set with LLC-MK2 cells [9] (setting [28]) came out at 53.5 ± 2.18 µM.
The molecule `Cc1c(C)[n+](Cc2cccc(C(F)(F)F)c2)cn1Cc1ccccc1.[Cl-]` [Compound 1g, 1-Benzyl-4,5-dimethyl-3-[3-(trifluoromethyl)benzyl]imidazolium chloride] showed a melting point of 120 to 122 °C. For the same molecule, in data set [16], the 50% cytotoxic concentration (CC50) at 48 h came out at 30 ± 2 µM. For the same molecule, the CC50 at 48 h in data set [23] was 54.3 ± 1.16 µM. Also, the IC50 in [17] is over 30 µM. For the same molecule, the IC50 in data set [18] is over 0.107 µM. Also, the IC50 in data set [7] (setting [30]) is over 6.62e-05 M. In data set [19], the IC50 was over 0.053 µM. The CC50 at 48 h in data set [24] amounted to 0.053 ± 0.006 µM. The CC50 at 48 h in data set [20] is 130 ± 5 µM. Also, the CC50 at 48 h in [25] is 0.107 ± 0.012 µM. Further, in the data set with Vero cells [15], the “CC50 Normal Cell Lines Vero” value was “toxic”. In addition, the IC50 in [21] is over 54.3 µM. Also, the CC50 at 48 h in data set [22] turned out to be 10.3 ± 1.04 µM. For the same molecule, the CC50 at 48 h in data set [26] worked out at 66.2 ± 2.25 µM.
